Earlier results as cited in patent US20070213265A1, “Kunitz-type sequences and polypeptides” (Novo Nordisk A/S, priority 2001, published 2007).

Legend:
[1] = high doses; cardiac surgery, including cardiopulmonary bypass operations
plasma kallikrein = plasma kallikrein (Homo sapiens, UniProt P03952)
granulocyte elastase = granulocyte elastase (Homo sapiens, UniProt P08246)
Chain of granulocyte elastase (P08246 30-267): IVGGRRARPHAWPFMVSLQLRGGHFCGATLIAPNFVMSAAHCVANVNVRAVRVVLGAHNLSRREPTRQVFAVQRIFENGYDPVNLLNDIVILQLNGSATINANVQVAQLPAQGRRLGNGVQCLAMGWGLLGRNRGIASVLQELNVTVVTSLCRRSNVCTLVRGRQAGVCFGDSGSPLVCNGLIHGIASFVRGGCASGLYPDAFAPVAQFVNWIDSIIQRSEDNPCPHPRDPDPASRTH

Chain of plasma kallikrein (P03952 20-638, species assumed): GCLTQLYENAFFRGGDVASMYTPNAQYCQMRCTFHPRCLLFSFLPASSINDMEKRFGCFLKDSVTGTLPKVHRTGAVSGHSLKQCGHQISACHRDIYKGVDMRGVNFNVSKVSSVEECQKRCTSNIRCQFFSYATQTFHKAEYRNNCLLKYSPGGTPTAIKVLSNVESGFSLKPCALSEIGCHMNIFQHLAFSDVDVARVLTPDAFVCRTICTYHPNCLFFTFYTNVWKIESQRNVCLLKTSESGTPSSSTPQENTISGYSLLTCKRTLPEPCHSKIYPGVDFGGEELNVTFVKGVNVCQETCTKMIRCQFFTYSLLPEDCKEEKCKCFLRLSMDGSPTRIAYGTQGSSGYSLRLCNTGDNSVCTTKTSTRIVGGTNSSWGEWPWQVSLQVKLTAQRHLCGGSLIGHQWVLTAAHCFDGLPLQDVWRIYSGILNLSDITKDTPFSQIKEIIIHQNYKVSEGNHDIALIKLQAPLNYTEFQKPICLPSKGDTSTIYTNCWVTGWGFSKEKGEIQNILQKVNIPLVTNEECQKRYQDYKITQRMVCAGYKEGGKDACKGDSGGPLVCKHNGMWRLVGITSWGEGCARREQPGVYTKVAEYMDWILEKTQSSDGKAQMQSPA

Aprotinin (1-58, Ala15)
effect on elastase (elastase): weak effect

aprotinin
blood loss [1]: significantly reduces blood loss

aprotinin (3-58, Arg15, Ala17, Ser42)
plasma kallikrein inhibitory effect (plasma kallikrein): excellent

aprotinin(1-58, Val15)
selectivity for granulocyte elastase (granulocyte elastase): relatively high selectivity
inhibitory effect on collagenase (collagenase): inhibitory effect
